pKi: −log10 of the molar value.
Columns and labels:
Assay type in all cases: cell-based
[1] = target: Delta-type opioid receptor (Homo sapiens, UniProt P41143); test: Binding affinity against Opioid receptor delta 1 expressed in CHO cells using [3H]Naltrindole as radioligand
Mu-type opioid receptor = Mu-type opioid receptor (Homo sapiens, UniProt P35372); test: Binding affinity against Opioid receptor mu 1 expressed in CHO cells using [3H]DAMGO as radioligand
[2] = target: Kappa-type opioid receptor (Homo sapiens, UniProt P41145); test: Binding affinity against Opioid receptor kappa 1 expressed in CHO cells using [3H]U-69593 as radioligand
Sequence of Kappa-type opioid receptor (P41145 whole entry): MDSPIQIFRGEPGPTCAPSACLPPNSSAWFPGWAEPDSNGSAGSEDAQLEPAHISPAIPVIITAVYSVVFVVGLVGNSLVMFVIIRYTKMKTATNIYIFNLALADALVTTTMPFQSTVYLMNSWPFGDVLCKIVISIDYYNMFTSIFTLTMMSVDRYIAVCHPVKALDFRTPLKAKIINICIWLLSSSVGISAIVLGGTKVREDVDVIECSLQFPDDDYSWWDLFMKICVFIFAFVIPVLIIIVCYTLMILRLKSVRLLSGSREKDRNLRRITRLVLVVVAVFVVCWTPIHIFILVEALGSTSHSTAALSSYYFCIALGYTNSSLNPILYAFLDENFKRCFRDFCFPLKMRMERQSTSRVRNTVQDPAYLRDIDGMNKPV

Sequence of Mu-type opioid receptor (P35372 whole entry): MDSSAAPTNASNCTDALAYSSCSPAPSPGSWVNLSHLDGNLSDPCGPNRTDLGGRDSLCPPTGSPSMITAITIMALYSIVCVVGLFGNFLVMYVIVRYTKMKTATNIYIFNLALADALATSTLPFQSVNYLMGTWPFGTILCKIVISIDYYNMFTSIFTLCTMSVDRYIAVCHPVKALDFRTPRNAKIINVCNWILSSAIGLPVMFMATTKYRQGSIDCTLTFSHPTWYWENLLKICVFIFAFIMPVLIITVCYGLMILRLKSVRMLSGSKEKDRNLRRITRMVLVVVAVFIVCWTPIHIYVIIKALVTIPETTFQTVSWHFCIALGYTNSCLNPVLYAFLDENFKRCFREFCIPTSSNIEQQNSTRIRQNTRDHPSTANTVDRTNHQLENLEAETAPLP
Sequence of Delta-type opioid receptor (P41143 whole entry): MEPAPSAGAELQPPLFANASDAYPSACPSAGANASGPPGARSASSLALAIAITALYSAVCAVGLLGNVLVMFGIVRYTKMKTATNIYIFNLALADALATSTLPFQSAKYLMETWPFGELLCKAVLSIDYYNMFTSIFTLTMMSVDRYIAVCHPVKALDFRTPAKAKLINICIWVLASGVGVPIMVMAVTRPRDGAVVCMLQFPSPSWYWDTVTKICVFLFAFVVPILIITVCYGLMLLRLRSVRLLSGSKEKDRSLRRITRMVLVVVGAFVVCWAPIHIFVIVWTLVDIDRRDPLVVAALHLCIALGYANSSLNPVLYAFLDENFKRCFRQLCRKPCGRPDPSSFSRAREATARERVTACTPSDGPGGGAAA

Compound	pKi [1]	pKi (Mu-type opioid receptor)	pKi [2]
COc1c(C(N)=O)ccc2c1[C@]13CCN(CC4CC4)[C@H](C2)[C@]1(O)CCC(=O)C3	6.32	7.96	7.64
O=C1CC[C@@]2(O)[C@H]3Cc4ccc(O)c(O)c4[C@@]2(CCN3CC2CC2)C1	6.89	7.77	8.66
NC(=O)c1ccc2c(c1O)[C@]13CCN(CC4CCC4)[C@H](C2)[C@]1(O)CCC(=O)C3	8.38		9.57
NC(=O)c1ccc2c3c1O[C@H]1C(=O)CC[C@@]4(O)[C@@H](C2)N(CC2CC2)CC[C@]314	6.26	9.15	7.96
NC(=O)c1ccc2c(c1O)[C@]13CCN(CC4CC4)[C@H](C2)[C@]1(O)CCC(=O)C3 [SAMIDORPHAN]	8.59	10.28	9.64

Reference: ChEMBL document CHEMBL1143538 (Bioorg Med Chem Lett, 2005)
